According to US4882322A, “3β,17β-hydroxy-substituted steroids and related steroidal compounds” (Merrell Dow Pharmaceuticals Inc., priority 1988, dated 1989):
Like-named read-outs stand apart in the source and are kept apart here.

Legend:
JAr Tumor Aromatase = target: T1, JAr Tumor Aromatase (Homo sapiens, UniProt P11511); assay: Time-dependent JAr tumor aromatase activity (in vitro inhibition; 3H2O release from 1-[3H]-androstenedione, cytosol of JAr tumor); type: biochemical; settings: for inhibition at 5 µM: Conc. 5 μM; for inhibition at 5 µM / inhibition at 25 µM: read-out: Relative Percent Inhibition; for inhibition at 25 µM: Conc. 25 μM
T1 construct: from 35 mg of tumor was the source for both aromatase; from tissue; host or cells: Tumor grown from subcutaneously injected human JAr choriocarcinoma cells in athymic nude mice; 800×g supernatant ('cytosol')
T1 sequence (P11511 1-503): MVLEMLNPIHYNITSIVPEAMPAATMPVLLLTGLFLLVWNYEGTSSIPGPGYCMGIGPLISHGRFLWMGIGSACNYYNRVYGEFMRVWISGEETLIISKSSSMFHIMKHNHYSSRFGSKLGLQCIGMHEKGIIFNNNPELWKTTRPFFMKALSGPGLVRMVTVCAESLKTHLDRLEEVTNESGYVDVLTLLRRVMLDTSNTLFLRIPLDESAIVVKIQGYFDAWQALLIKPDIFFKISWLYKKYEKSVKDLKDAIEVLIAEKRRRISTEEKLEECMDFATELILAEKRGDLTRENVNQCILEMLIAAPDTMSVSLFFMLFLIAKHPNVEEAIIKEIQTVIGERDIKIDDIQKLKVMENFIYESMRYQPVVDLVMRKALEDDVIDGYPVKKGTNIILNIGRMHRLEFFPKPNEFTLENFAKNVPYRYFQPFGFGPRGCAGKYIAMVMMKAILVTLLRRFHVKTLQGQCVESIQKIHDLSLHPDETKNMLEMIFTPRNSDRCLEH
Protocol: The aromatase inhibitory action of the compounds of the present invention may be determined using a radioenzymatic assay. An aromatase enzyme preparation is employed from the microsomal fraction isolated from human placenta. Stereospecific elimination of 1β and 2β tritium labels from androgen substrates such as testosterone or androstenedione, and the subsequent appearance of tritated water, is utilized to measure the rate of enzyme reaction during in vitro incubations.
In evaluating the inhibition of aromatase activity, the compounds of the present invention were tested according to the folowing procedure adapted from Johnston et al., J Steroid Biochem., Vol. 20, No. 6A, 1221 (1984) and Johnston, Steroids, Vol. 50, No. 1-3, 105 (1987). Athymic nude mice were subcutaneously injected with 1.5×10^6 human choriocarcinoma trophoblast (JAr) cells, which develop tumor masses of about 1 g in 10 days. Tumor aromatase activity was determined in vitro by measuring the ^3 H2 O resulting from the stereospecific release of 1-β ^3 H from 1-[^3 H]-androstenedione. Cytosol (800×g) from 35 mg of tumor was the source for both aromatase and 3β-steroid dehydrogenase (SDH):isomerase activity. The test compounds were incubated for varying intervals (0-3 hrs) with aromatase prior to the addition of 34 pmol 1-[3H]-androstenedione to start a 30 min aromatase activity assay. When 10-(2-propynyl)-19-norandrost-5-ene-3β,17β-diol was tested in vitro by this procedure the following results were observed: […]

[1] = tested on: Aromatase Activity of JAr Tumor Xenografts in Nude Mice; assay: In vivo inhibition of aromatase activity of JAr tumor xenografts in nude mice; parameters: species or system human (JAr tumor cells) in athymic nude mice; settings: vehicle PEG-200, 6 hr post-treatment
Protocol: In evaluating the inhibition of aromatase activity, the compounds of the present invention were tested according to the folowing procedure adapted from Johnston et al., J Steroid Biochem., Vol. 20, No. 6A, 1221 (1984) and Johnston, Steroids, Vol. 50, No. 1-3, 105 (1987). Athymic nude mice were subcutaneously injected with 1.5×10^6 human choriocarcinoma trophoblast (JAr) cells, which develop tumor masses of about 1 g in 10 days. Tumor aromatase activity was determined in vitro by measuring the ^3 H2 O resulting from the stereospecific release of 1-β ^3 H from 1-[^3 H]-androstenedione. Cytosol (800×g) from 35 mg of tumor was the source for both aromatase and 3β-steroid dehydrogenase (SDH):isomerase activity. The test compounds were incubated for varying intervals (0-3 hrs) with aromatase prior to the addition of 34 pmol 1-[3H]-androstenedione to start a 30 min aromatase activity assay. When 10-(2-propynyl)-19-norandrost-5-ene-3β,17β-diol was tested in vitro by this procedure the following results were observed:
The compound 10-(2-propynyl)-19-norandrost-5-ene-3β,17β-diol was also evaluated in vivo by treating nude mice with trophoblast tumors. At 6 hr post-treatment intervals, tumor aromatase activity was determined in an in vitro assay as discussed above. The vehicle for oral dosing was PEG-200.

## C#CC[C@]12CC[C@H](O)CC1=CC[C@@H]1[C@@H]2CC[C@]2(C)[C@@H](O)CC[C@@H]12 [10-(2-propynyl)-19-norandrost-5-ene-3β,17β-diol]
JAr Tumor Aromatase; preincubation time 0 hr
  inhibition at 5 µM: 15.1%
  inhibition at 25 µM: 33.4%
JAr Tumor Aromatase; preincubation time 1 hr
  inhibition at 5 µM: 0%
  inhibition at 25 µM: 0%
JAr Tumor Aromatase; preincubation time 2 hr
  inhibition at 5 µM: 66.9%
  inhibition at 25 µM: 86.5%
JAr Tumor Aromatase; preincubation time 3 hr
  inhibition at 5 µM: 71.9%
  inhibition at 25 µM: 84.9%
JAr Tumor Aromatase; preincubation 0-3 hr, after enzymatic processing to a more reactive component
  type of aromatase inhibition (biphase response): time-dependent inhibition of aromatase
[1]; 7 mg/kg oral
  Relative % Inhibition 6 hr Post-treatment: 5.9 ± 3.0%
[1]; 10 mg/kg oral
  Relative % Inhibition 6 hr Post-treatment: 27.5 ± 1.5%
[1]; 30 mg/kg oral
  Relative % Inhibition 6 hr Post-treatment: 53.4 ± 7.8%
